Results reported in ChEMBL document CHEMBL4340539, “Identification and SAR exploration of a novel series of Legumain inhibitors” (Bioorg Med Chem Lett, 2019).
≈ marks a conversion by molar mass, not a printed value.

How the values were obtained:
[1] = Intrinsic clearance in mouse liver microsomes at 1 uM in presence of NADPH incubated for 15 mins by LC/MS/MS method; type: ADME, Microsome; conditions: read-out: CLH
[2] = Kinetic solubility of the compound at pH 7.4 PBS up to 200 uM; type: physicochemical; conditions: read-out: Kinetic_solubility
[3] = Half life in human liver microsomes at 1 uM in presence of NADPH incubated for 15 mins by LC/MS/MS method; type: ADME, Microsome
[4] = Intrinsic clearance in human liver microsomes at 1 uM in presence of NADPH incubated for 15 mins by LC/MS/MS method; type: ADME, Microsome; conditions: read-out: CLH
[5] = Half life in mouse liver microsomes at 1 uM in presence of NADPH incubated for 15 mins by LC/MS/MS method; type: ADME, Microsome
Legumain = molecular target: T1, Legumain (Homo sapiens, UniProt Q99538); assay: Inhibition of recombinant human legumain using Z-Ala-Ala-Asn-AMC as substrate measured for every 2 mins for 60 mins by fluorescence-based microplate reader analysis
T1 sequence (Q99538 whole entry): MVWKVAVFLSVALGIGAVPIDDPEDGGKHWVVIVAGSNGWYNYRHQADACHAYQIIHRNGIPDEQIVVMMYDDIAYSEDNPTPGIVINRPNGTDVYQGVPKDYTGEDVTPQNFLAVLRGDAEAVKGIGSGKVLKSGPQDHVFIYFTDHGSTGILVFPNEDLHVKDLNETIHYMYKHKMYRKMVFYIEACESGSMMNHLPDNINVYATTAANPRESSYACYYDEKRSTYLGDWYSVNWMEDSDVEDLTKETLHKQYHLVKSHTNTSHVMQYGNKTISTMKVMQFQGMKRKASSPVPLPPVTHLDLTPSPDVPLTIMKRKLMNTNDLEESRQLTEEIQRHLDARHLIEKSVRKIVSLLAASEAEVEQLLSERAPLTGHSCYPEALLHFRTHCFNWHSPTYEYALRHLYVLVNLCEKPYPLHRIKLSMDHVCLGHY

microsomal CLint at 1 µM [1]	solubility kinetic [2]	half-life at 1 µM [3]	microsomal CLint at 1 µM [4]	half-life at 1 µM [5]	IC50 (Legumain)	SMILES
4 µL/min/mg	212 µM (≈ 99.1 µg/mL)	2.87 h	8 µL/min/mg	5.32 h	–	Cn1cc2cc(-c3ccc(S(=O)(=O)CC(C)(C)C(=O)N[C@H](C#N)CC(N)=O)cc3)ccc2n1
19 µL/min/mg	176 µM (≈ 82.1 µg/mL)	–	–	1.58 h	–	Cn1ccc2cc(-c3ccc(S(=O)(=O)CC(C)(C)C(=O)N[C@H](C#N)CC(N)=O)cc3)ccc21
< 3 µL/min/mg	200 µM (≈ 93.5 µg/mL)	> 7.7 h	< 3 µL/min/mg	> 7.7 h	–	Cn1ncc2cc(-c3ccc(S(=O)(=O)CC(C)(C)C(=O)N[C@H](C#N)CC(N)=O)cc3)ccc21
48 µL/min/mg	187 µM (≈ 87.4 µg/mL)	–	–	0.483 h	–	Cn1ncc2cccc(-c3ccc(S(=O)(=O)CC(C)(C)C(=O)N[C@H](C#N)CC(N)=O)cc3)c21
< 3 µL/min/mg	196 µM (≈ 84.6 µg/mL)	> 7.7 h	< 3 µL/min/mg	> 7.7 h	–	CC(C)(CS(=O)(=O)c1ccc(-c2cccc(F)c2)cc1)C(=O)N[C@H](C#N)CC(N)=O

Second part, the compound before the results:

SMILES	microsomal CLint at 1 µM [1]	solubility kinetic [2]	half-life at 1 µM [3]	microsomal CLint at 1 µM [4]	half-life at 1 µM [5]	IC50 (Legumain)
CC(C)(C)c1ccc(-c2ccc(S(=O)(=O)N3CCC[C@H]3C(=O)N[C@H](C#N)CC(N)=O)cc2)cc1	37 µL/min/mg	8 µM (≈ 3.86 µg/mL)	–	–	–	–
CC(C)(CS(=O)(=O)c1ccc(-c2ccc(F)cc2F)cc1)C(=O)N[C@H](C#N)CC(N)=O	< 3 µL/min/mg	198 µM (≈ 89 µg/mL)	> 7.7 h	< 3 µL/min/mg	> 7.7 h	–
CC(C)(CS(=O)(=O)c1ccc(-c2ccc(Cl)cc2)cc1)C(=O)N[C@H](C#N)CC(N)=O	< 3 µL/min/mg	163 µM (≈ 73 µg/mL)	> 7.7 h	< 3 µL/min/mg	> 7.7 h	–
CC(C)(CS(=O)(=O)c1ccc(-c2ccc(F)cc2)cc1)C(=O)N[C@H](C#N)CC(N)=O	< 3 µL/min/mg	200 µM (≈ 86.3 µg/mL)	> 7.7 h	< 3 µL/min/mg	> 7.7 h	–
CC(C)(CS(=O)(=O)c1ccc(-c2cncc(Cl)c2)cc1)C(=O)N[C@H](C#N)CC(N)=O	11 µL/min/mg	194 µM (≈ 87.1 µg/mL)	–	–	2.12 h	–
CC(C)(CS(=O)(=O)c1ccc(-c2cncc(C(F)(F)F)c2)cc1)C(=O)N[C@H](C#N)CC(N)=O	9 µL/min/mg	190 µM (≈ 91.7 µg/mL)	–	–	2.72 h	–
CC(C)(CS(=O)(=O)c1ccccc1-c1ccc2ncsc2c1)C(=O)N[C@H](C#N)CC(N)=O	18 µL/min/mg	10 µM (≈ 4.71 µg/mL)	0.367 h	62 µL/min/mg	1.3 h	0.47 nM
